Laboratory results taken from publication PMC7614683, “A small molecule PI3Kα activator for cardioprotection and neuroregeneration” (Nature, 2023).
Like-named read-outs stand apart in the source and are kept apart here.

What was measured:
Test in all cases: SelectScreen Z-LYTE kinase activity assay (SI Table 6)
Format in all cases: biochemical
[1] = molecular target: protein kinases of the Z-LYTE panel (Homo sapiens, UniProt Q13554)
Outline: (§1)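 Percent effect values derive from SelectScreen Adapta, Lantha and Z-LYTE assays in which 1938 was present at 1 μM, spanning 133 protein kinases and 7 lipid kinases.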

[2] = molecular target: T1, protein kinases of the Z-LYTE panel (Homo sapiens, UniProt O14757)
T1 sequence (O14757 1-476): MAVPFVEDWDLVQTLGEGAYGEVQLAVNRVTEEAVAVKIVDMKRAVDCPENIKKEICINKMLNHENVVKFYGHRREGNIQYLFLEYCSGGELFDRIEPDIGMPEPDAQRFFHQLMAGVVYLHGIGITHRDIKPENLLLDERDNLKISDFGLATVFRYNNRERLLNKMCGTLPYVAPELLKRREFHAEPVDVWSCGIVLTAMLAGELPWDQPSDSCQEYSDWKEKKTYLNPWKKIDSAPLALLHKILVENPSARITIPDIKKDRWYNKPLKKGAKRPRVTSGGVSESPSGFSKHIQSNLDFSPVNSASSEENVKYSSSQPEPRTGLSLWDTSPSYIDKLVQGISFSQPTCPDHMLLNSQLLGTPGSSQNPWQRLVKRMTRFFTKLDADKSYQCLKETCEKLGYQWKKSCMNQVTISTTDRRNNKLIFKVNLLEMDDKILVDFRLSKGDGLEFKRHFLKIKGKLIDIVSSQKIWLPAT
Outline: as §1

[3] = molecular target: T2, protein kinases of the Z-LYTE panel (Homo sapiens, UniProt P30530)
T2 sequence (P30530 26-894): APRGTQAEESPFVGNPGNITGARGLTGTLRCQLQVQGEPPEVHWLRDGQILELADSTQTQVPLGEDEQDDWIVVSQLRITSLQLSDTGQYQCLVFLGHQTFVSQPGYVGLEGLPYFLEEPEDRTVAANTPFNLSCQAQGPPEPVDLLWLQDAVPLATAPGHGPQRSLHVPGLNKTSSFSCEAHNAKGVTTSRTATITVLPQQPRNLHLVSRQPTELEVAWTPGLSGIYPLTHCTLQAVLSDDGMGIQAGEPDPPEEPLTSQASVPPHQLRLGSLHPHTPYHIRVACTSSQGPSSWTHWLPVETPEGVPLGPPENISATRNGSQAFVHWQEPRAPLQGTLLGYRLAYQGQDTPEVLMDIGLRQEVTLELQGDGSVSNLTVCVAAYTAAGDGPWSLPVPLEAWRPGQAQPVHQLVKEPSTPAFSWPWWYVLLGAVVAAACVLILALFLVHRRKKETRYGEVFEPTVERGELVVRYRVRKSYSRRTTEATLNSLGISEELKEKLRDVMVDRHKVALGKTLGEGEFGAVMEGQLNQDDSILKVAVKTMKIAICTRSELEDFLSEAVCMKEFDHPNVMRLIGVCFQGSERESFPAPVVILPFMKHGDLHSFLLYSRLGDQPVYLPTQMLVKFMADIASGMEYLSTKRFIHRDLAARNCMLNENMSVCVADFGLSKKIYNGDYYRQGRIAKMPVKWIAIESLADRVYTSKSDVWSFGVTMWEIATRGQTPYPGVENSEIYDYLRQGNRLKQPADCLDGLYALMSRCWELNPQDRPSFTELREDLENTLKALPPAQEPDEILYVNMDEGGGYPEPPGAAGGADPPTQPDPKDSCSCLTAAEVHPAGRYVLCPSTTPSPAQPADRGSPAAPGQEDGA
Outline: as §1

[4] = molecular target: protein kinases of the Z-LYTE panel (Homo sapiens, UniProt Q9UM73)
Chain of protein kinases of the Z-LYTE panel (Homo sapiens, UniProt Q9UM73) (Q9UM73 19-1620): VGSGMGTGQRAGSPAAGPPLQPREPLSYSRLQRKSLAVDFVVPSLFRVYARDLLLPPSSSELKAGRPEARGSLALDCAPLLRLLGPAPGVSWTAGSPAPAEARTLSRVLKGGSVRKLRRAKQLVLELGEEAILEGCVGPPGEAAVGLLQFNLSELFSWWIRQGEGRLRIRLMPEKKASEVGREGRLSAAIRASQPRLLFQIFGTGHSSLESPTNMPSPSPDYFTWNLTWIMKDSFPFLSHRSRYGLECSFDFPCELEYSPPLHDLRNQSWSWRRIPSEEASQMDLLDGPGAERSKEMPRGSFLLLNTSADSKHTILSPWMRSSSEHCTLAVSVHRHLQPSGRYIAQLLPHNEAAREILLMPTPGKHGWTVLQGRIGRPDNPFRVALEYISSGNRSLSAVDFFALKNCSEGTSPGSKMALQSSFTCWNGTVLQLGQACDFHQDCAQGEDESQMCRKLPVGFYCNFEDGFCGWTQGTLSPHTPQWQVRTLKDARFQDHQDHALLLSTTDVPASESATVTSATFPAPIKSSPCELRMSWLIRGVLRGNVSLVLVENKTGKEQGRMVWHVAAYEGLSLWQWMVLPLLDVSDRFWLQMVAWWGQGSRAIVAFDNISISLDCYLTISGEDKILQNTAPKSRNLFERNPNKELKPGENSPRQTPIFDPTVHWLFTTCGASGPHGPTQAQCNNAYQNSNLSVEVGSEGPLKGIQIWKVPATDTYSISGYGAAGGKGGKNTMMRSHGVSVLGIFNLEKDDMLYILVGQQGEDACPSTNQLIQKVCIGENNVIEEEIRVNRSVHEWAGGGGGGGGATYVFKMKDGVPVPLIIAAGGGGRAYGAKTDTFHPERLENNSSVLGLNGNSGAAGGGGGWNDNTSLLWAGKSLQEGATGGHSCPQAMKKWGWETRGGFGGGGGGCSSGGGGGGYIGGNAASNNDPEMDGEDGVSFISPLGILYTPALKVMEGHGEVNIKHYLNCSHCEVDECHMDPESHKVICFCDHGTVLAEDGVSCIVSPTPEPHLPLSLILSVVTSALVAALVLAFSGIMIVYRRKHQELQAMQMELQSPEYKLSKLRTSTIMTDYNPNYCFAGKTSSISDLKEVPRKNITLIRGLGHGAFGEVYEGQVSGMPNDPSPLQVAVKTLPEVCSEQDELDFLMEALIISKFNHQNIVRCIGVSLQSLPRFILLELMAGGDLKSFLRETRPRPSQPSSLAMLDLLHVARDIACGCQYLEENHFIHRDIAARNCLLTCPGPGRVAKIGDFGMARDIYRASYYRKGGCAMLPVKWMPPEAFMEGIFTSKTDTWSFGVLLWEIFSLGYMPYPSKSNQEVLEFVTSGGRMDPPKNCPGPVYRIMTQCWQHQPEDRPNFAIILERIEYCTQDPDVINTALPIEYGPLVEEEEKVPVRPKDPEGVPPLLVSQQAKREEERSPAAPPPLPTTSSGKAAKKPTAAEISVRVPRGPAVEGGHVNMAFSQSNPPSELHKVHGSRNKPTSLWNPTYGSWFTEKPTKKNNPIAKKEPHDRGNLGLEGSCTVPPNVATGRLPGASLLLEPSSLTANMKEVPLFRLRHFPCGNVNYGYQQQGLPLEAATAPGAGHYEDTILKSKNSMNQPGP
Outline: as §1

Chain of protein kinases of the Z-LYTE panel (Homo sapiens, UniProt Q13554) (Q13554 whole entry): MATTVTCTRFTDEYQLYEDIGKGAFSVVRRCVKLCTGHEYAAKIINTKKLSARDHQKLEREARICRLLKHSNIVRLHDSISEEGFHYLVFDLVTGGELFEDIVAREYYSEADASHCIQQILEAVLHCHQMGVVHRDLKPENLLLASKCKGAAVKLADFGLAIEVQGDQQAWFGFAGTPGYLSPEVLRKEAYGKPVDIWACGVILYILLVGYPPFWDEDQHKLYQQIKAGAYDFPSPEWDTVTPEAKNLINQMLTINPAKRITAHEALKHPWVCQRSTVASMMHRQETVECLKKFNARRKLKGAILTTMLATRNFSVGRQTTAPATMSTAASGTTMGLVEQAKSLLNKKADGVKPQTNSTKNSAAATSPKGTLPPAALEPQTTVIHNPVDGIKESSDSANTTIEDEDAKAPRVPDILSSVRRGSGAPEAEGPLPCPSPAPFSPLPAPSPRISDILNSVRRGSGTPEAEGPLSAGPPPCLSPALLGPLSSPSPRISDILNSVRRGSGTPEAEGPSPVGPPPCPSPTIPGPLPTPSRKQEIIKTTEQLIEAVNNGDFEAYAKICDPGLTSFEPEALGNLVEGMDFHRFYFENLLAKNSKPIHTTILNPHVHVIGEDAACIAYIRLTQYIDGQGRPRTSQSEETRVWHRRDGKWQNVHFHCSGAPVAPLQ

SMILES: CCN1CCN(c2ccc(Nc3cc(Nc4cccc5c4N(C(C)=O)CC5)ccn3)cc2)CC1 [Compound 1938]
- inhibition at 1 µM ([1]; read-out: % Inhibition Point 1): 8%
- inhibition at 1 µM ([1]; read-out: % Inhibition Point 2): 6%
- inhibition at 1 µM ([1]; read-out: % Inhibition mean): 7%
- inhibition at 1 µM ([2]; read-out: % Inhibition Point 1): 2%
- inhibition at 1 µM ([2]; read-out: % Inhibition Point 2): -3.79%
- inhibition at 1 µM ([2]; read-out: % Inhibition mean): -0.889%
- inhibition at 1 µM ([3]; read-out: % Inhibition Point 1): 7%
- inhibition at 1 µM ([3]; read-out: % Inhibition Point 2): 8%
- inhibition at 1 µM ([3]; read-out: % Inhibition mean): 7.4%
- inhibition at 1 µM ([4]; read-out: % Inhibition Point 1): 11%
- inhibition at 1 µM ([4]; read-out: % Inhibition Point 2): 15%
- inhibition at 1 µM ([4]; read-out: % Inhibition mean): 13%
